In publication PMC10377586 (Biomolecules, 2023):

What was measured:
human D2L receptor = human D2L receptor (Homo sapiens, UniProt P14416); assay: Radioligand binding [3H]-raclopride, HEK293 membranes; conditions: HEK293 cells, human D2; read-out: hD2 [3H]-Raclopride Ki ± SEM
Protocol: Rat brain cortical membranes were used as source of native rat D1 receptor protein, and human D2 receptor was recombinantly expressed in HEK293 cells.
HEK293 cells with stable expression of human D2L receptor were maintained at 37 °C in a humidified atmosphere with 5% CO2 and grown in Dulbecco’s Modifier Eagle Medium containing 10% dialyzed fetal bovine serum and 500 µg/mL G418 sulfate. For membrane preparation, cells were subcultured in 150 cm^2 flasks, grown to 90% confluence, washed twice with prewarmed to 37 °C phosphate buffered saline (PBS), and pelleted by centrifugation (200× g) in PBS containing 0.1 mM EDTA and 1 mM dithiothreitol. Prior to membrane preparation, pellets were stored at −80 °C.
Cell pellets were thawed and homogenized in 10 volumes of assay buffer using an Ultra Turrax tissue homogenizer and centrifuged twice at 35,000× g for 15 min at 4 °C. The incubation buffer consisted of 50 mM Tris-HCl, 1 mM EDTA, 4 mM MgCl2, 120 mM NaCl, 5 mM KCl, 1.5 mM CaCl2, and 0.1% ascorbate. Assay was incubated in a total volume of 200 µL in 96-well microtiter plate for 1 h at 37 °C. The process of equilibration was terminated by rapid filtration through Unifilter plate with a 96-well cell harvester and radioactivity retained on the filter was quantified on a Microbeta plate reader (PerkinElmer). For competition studies, the assay samples contained radioligand 2.5 nM [^3H]-raclopride (PerkinElmer). Non-specific binding was defined with 10 µM of haloperidol. Each compound was tested in triplicate at 7 concentrations (10^−10–10^−4 M). The inhibition constants (Ki) were calculated from the Cheng–Prusoff equation [66]. Results were expressed as means of at least two separate experiments.

human A2B (hA2B) ARs = target: T1, human A2B (hA2B) ARs (Homo sapiens, UniProt P29275); assay: Radioligand binding [3H]PSB-603, CHO cell membranes; conditions: for Ki: CHO cell membranes, read-out: hA2B [3H]PSB-603 Ki ± SEM; for inhibition at 1 µM: read-out: hA2B [3H]PSB-603 % inhibition ± SEM at 1 µM
T1 construct: expressed in transfected cells; host or cells: CHO cells (membranes)
T1 sequence (P29275 1-332): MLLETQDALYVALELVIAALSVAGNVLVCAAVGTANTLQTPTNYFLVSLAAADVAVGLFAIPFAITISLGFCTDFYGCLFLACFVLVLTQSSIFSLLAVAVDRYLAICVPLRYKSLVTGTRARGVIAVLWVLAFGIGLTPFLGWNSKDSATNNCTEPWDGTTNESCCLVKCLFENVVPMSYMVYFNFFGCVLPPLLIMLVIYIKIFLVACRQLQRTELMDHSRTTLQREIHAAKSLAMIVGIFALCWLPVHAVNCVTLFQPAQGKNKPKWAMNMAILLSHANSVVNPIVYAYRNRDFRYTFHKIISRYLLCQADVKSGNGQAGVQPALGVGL
Protocol: (§1) The final compounds were tested in radioligand binding assays to evaluate their affinity for all four ARs subtypes (see Table 2). Rat brain cortical membrane preparations were used as a source of rat A1 (rA1) ARs, and rat brain striatal membrane preparations served as a source of rat A2A (rA2A) ARs. For A2B- and A3AR assays, membrane preparations of Chinese hamster ovary (CHO) cells recombinantly expressing either human A2B (hA2B) or human A3 (hA3) ARs were employed.
(§2) Adenosine receptor radioligand binding assays were performed as previously described using rat brain cortical membrane preparations for A1 and rat brain striatal membrane preparations for A2A AR assays. Frozen rat brains (unstripped) were obtained from Pel Freez, Rogers, AR, USA. For assays at human AR subtypes, cell membranes of CHO cells recombinantly expressing the respective receptor were used. The following compounds were employed as radioligands: A1: [^3H]2-chloro-N^6-cyclopentyladenosine ([^3H]CCPA); A2A: [^3H]3-(3-hydroxypropyl)-7-methyl-8-(m-methoxystyryl)-1-propargylxanthine ([^3H]MSX-2); A2B: [^3H]8-(4-(4-(4-chlorophenyl)piperazine-1-sulfonyl)phenyl)-1-propylxanthine ([^3H]PSB-603); A3: [^3H]phenyl-8-ethyl-4-methyl-(8R)-4,5,7,8-tetrahydro-1H-imidazo[2,1-i]purine-5-one ([^3H]PSB-11). Initially, a single high concentration of compound was tested (1 µM). For potent compounds, full concentration–inhibition curves were determined using six to ten different concentrations of test compound spanning three orders of magnitude. At least three independent experiments were performed. Data were analyzed using GraphPad PRISM program version 4.0 or higher (Graph Pad, San Diego, CA, USA).

human MAO-A = target: T2, human MAO-A (Homo sapiens, UniProt P21397); assay: Amplex Red monoamine oxidase assay, MAO-A; format: biochemical; conditions: for IC50: human recombinant MAO-A, read-out: MAO-A IC50 ± SEM; for inhibition at 1 µM: read-out: MAO-A % Inhibition ± SEM at 1 µM
T2 construct: purchased Sigma Aldrich M7316
T2 sequence (P21397 1-527): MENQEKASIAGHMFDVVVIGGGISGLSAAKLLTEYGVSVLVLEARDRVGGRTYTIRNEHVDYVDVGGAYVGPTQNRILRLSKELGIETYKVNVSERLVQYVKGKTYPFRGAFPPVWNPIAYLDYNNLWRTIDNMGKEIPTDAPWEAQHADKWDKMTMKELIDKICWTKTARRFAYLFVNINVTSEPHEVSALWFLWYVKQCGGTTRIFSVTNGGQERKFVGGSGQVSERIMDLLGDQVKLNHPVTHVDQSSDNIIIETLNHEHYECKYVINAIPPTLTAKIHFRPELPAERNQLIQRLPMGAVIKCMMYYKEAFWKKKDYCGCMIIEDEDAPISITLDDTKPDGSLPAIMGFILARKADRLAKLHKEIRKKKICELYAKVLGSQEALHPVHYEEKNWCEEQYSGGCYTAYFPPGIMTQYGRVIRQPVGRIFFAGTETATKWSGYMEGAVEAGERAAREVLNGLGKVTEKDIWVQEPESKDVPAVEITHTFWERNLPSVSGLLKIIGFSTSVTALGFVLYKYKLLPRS
Protocol: The final compounds were evaluated in vitro for their human MAO-B (hMAO-B) inhibitory potencies, and selected structures were also investigated for human MAO-A (hMAO-A) inhibition.
Inhibition activity of compounds at MAO enzyme isoforms was measured via a fluorometric method using the Amplex Red Monoamine Oxidase Assay (ThermoFisher Scientific, Waltham, MA, USA #A12214) in a 96-well plates. Human recombinant MAO-B and MAO-A enzymes (Sigma Aldrich, St. Louis, MO, USA #M7441 and #M7316) were used. The assays were conducted as previously described.

rat A2A (rA2A) ARs = target: T3, rat A2A (rA2A) ARs (Rattus norvegicus, UniProt P30543); assay: Radioligand binding [3H]MSX-2, rat brain striatal membranes; conditions: read-out: rA2A [3H]MSX-2 Ki ± SEM
T3 construct: rat brain striatal membrane preparations for A2A AR assays; tissue Pel Freez; host or cells: rat brain striatum membranes
T3 sequence (P30543 whole entry): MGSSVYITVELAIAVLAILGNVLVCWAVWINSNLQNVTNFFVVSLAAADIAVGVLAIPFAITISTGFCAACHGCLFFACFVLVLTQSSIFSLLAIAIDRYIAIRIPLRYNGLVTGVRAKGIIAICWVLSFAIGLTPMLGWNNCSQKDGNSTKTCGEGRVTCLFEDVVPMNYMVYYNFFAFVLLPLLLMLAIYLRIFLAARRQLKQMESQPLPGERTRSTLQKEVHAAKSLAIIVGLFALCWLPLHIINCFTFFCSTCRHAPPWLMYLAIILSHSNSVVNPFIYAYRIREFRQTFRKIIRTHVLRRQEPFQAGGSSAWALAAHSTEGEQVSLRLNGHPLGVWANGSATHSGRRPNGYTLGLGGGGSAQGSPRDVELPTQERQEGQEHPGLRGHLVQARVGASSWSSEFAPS
Protocol: as §1, §2

Chain of human D2L receptor (P14416 whole entry): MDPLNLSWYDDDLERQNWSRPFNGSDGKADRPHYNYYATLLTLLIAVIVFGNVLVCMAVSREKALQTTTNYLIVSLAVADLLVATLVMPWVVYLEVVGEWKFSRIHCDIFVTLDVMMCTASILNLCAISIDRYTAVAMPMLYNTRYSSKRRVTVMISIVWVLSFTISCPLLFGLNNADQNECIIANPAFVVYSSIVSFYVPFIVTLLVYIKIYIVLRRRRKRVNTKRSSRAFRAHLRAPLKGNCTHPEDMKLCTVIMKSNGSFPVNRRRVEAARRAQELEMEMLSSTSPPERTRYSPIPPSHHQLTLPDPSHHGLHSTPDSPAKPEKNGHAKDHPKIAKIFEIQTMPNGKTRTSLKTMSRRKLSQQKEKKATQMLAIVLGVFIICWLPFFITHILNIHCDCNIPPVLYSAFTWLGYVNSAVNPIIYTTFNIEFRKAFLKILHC

Row | Ki (human D2L receptor) | Ki (human A2B (hA2B) ARs) | inhibition at 1 µM (human A2B (hA2B) ARs) | IC50 (human MAO-A) | Ki (rat A2A (rA2A) ARs) | inhibition at 1 µM (human MAO-A) | Structure (SMILES)
1 | 6.68 ± 0.95 µM | > 1000 nM | 31% | 246 ± 72 nM | > 10000 nM | – | CCCCCCn1c(NCCc2ccc(O)c(O)c2)nc2c1c(=O)n(C)c(=O)n2C [Compound 11i, 8-((3,4-Dihydroxyphenethyl)amino)-7-hexyl-1,3-dimethyl-3,7-dihydro-1H-purine-2,6-dione]
2 | 27.6 ± 4 µM | > 1000 nM | 1% | > 1000 nM | 6860 ± 770 nM | 42% | CC(C)Cn1c(NCCc2ccc(O)c(O)c2)nc2c1c(=O)n(C)c(=O)n2C [Compound 11f, 8-((3,4-Dihydroxyphenethyl)amino)-7-isobutyl-1,3-dimethyl-3,7-dihydro-1H-purine-2,6-dione]
3 | 17.7 ± 3.99 µM | > 1000 nM | 13% | ≥ 1000 nM | 1150 ± 140 nM | 47% | CC(C)n1c(NCCc2ccc(O)c(O)c2)nc2c1c(=O)n(C)c(=O)n2C [Compound 11d, 8-((3,4-Dihydroxyphenethyl)amino)-7-isopropyl-1,3-dimethyl-3,7-dihydro-1H-purine-2,6-dione]
4 | 16.6 ± 2.3 µM | 175 ± 21 nM | – | > 1000 nM | 334 ± 52 nM | 43% | CCCCn1c(=O)c2c(nc3n2CCCN3CCc2ccc(O)c(O)c2)n(CCCC)c1=O [Compound 22, 1,3-Dibutyl-9-(3,4-dihydroxyphenethyl)-6,7,8,9-tetrahydropyrimido[2,1-f]purine-2,4(1H,3H)-dione]
5 | 39.2 ± 8.43 µM | > 1000 nM | -5% | > 1000 nM | 8980 ± 150 nM | 44% | CCC(C)n1c(NCCc2ccc(O)c(O)c2)nc2c1c(=O)n(C)c(=O)n2C (stereo not shown) [Compound 11g, 7-(Sec-butyl)-8-((3,4-dihydroxyphenethyl)amino)-1,3-dimethyl-3,7-dihydro-1H-purine-2,6-dione]
6 | 8.87 ± 0.94 µM | > 1000 nM | 22% | > 1000 nM | 1380 ± 120 nM | 41% | Cn1c(=O)c2c(nc(NCCc3ccc(O)c(O)c3)n2CCOc2ccccc2)n(C)c1=O [Compound 11l, 8-((3,4-Dihydroxyphenethyl)amino)-1,3-dimethyl-7-(2-phenoxyethyl)-3,7-dihydro-1H-purine-2,6-dione]
7 | 6.68 ± 0.87 µM | > 1000 nM | 13% | > 1000 nM | 507 ± 109 nM | 29% | Cn1c(=O)c2c(nc3n2CCCN3CCc2ccc(O)c(O)c2)n(C)c1=O [Compound 20a, 9-(3,4-Dihydroxyphenethyl)-1,3-dimethyl-6,7,8,9-tetrahydropyrimido[2,1-f]purine-2,4(1H,3H)-dione]
8 | 12.7 ± 2.8 µM | 371 ± 23 nM | – | ~1000 nM | 274 ± 81 nM | 61% | CCCn1c(=O)c2c(nc3n2CCCN3CCc2ccc(O)c(O)c2)n(CCC)c1=O [Compound 21, 9-(3,4-Dihydroxyphenethyl)-1,3-dipropyl-6,7,8,9-tetrahydropyrimido[2,1-f]purine-2,4(1H,3H)-dione]
9 | 12.7 ± 1.86 µM | > 1000 nM | 14% | > 1000 nM | 1700 ± 260 nM | 38% | CCCCn1c(NCCc2ccc(O)c(O)c2)nc2c1c(=O)n(C)c(=O)n2C [Compound 11e, 7-Butyl-8-((3,4-dihydroxyphenethyl)amino)-1,3-dimethyl-3,7-dihydro-1H-purine-2,6-dione]
10 | 9.1 ± 1.65 µM | > 1000 nM | 31% | 576 ± 68 nM | 3600 ± 290 nM | – | Cn1c(=O)c2c(nc(NCCc3ccc(O)c(O)c3)n2Cc2ccccc2)n(C)c1=O [Compound 11j, 7-Benzyl-8-((3,4-dihydroxyphenethyl)amino)-1,3-dimethyl-3,7-dihydro-1H-purine-2,6-dione]
11 | 8.26 ± 0.48 µM | > 1000 nM | 12% | 692 ± 7 nM | 2220 ± 260 nM | – | CCCCCn1c(NCCc2ccc(O)c(O)c2)nc2c1c(=O)n(C)c(=O)n2C [Compound 11h, 8-((3,4-Dihydroxyphenethyl)amino)-1,3-dimethyl-7-pentyl-3,7-dihydro-1H-purine-2,6-dione]
12 | 10.7 ± 1.4 µM | > 1000 nM | 6% | > 1000 nM | 234 ± 55 nM | 44% | Cn1c(=O)c2c(nc3n2CCCCN3CCc2ccc(O)c(O)c2)n(C)c1=O [Compound 20b, 10-(3,4-Dihydroxyphenethyl)-1,3-dimethyl-7,8,9,10-tetrahydro-1H-[1, 3]diazepino[2,1-f]purine-2,4(3H,6H)-dione]
13 | 9.37 ± 1.15 µM | > 1000 nM | 6% | > 1000 nM | 4720 ± 930 nM | 33% | CCCn1c(NCCc2ccc(O)c(O)c2)nc2c1c(=O)n(C)c(=O)n2C [Compound 11c, 8-((3,4-Dihydroxyphenethyl)amino)-1,3-dimethyl-7-propyl-3,7-dihydro-1H-purine-2,6-dione]

Row | Structure (SMILES) | Ki (human D2L receptor) | Ki (human A2B (hA2B) ARs) | inhibition at 1 µM (human A2B (hA2B) ARs) | IC50 (human MAO-A) | Ki (rat A2A (rA2A) ARs) | inhibition at 1 µM (human MAO-A)
14 | CCCCn1c(=O)c2c(nc(NCCc3ccc(O)c(O)c3)n2CCC)n(CCCC)c1=O [Compound 13, 1,3-Dibutyl-8-((3,4-dihydroxyphenethyl)amino)-7-propyl-3,7-dihydro-1H-purine-2,6-dione] | 4.39 ± 0.43 µM | > 1000 nM | 31% | > 1000 nM | 1320 ± 250 nM | 36%
